ChEMBL document CHEMBL5634077, “Recent advances in 1,2,3- and 1,2,4-triazole hybrids as antimicrobials and their SAR: A critical review” (2023)
Values after ≈ are worked out from the molar mass of the structure shown.

Experiments:
Format in all cases: functional
[1] = system: Bacillus subtilis; assay: Antibacterial activity against Bacillus subtilis MTCC 441 assessed as reduction in microbial growth
[2] = system: Escherichia coli; assay: Antibacterial activity against Escherichia coli MTCC 16521 assessed as reduction in microbial growth
[3] = system: Staphylococcus epidermidis; assay: Antibacterial activity against Staphylococcus epidermidis assessed as reduction in microbial growth
[4] = system: Candida albicans; assay: Antifungal activity against Candida albicans MTCC 227 assessed as inhibition of fungal growth
[5] = system: Aspergillus niger; assay: Antifungal activity against Aspergillus niger MTCC 8189 assessed as inhibition of fungal growth
[6] = system: Staphylococcus aureus; assay: Antibacterial activity against Staphylococcus aureus assessed as reduction in microbial growth incubated for 18 to 24 hrs by serial dilution method; conditions: time 18-24 hrs
[7] = system: Staphylococcus aureus; assay: Antibacterial activity against methicillin-sensitive Staphylococcus aureus assessed as reduction in microbial growth incubated for 18 to 24 hrs by serial dilution method; conditions: time 18-24 hrs
[8] = system: Staphylococcus aureus; assay: Antibacterial activity against methicillin-resistant Staphylococcus aureus assessed as reduction in microbial growth incubated for 18 to 24 hrs by serial dilution method; conditions: time 18-24 hrs
[9] = system: Bacillus subtilis; assay: Antibacterial activity against Bacillus subtilis assessed as inhibition of bacterial growth by microdilution method
[10] = system: Staphylococcus aureus; assay: Antibacterial activity against Staphylococcus aureus assessed as inhibition of bacterial growth by microdilution method
[11] = system: Staphylococcus epidermidis; assay: Antibacterial activity against Staphylococcus epidermidis assessed as inhibition of bacterial growth by microdilution method

Compound | MIC [9] [µg/mL] | MIC [10] [µg/mL] | MIC [11] [µg/mL] | MIC [6] [µg/mL] | MIC [7] [µg/mL] | MIC [8] [µg/mL] | other results
O=C(NCc1cn(CCCCn2cc(CNC(=O)Nc3ccc(Cl)cc3)nn2)nn1)Nc1ccc(Cl)cc1 | – | – | – | – | – | – | MIC [1]: 6 µM; MIC [2]: 6 µM; MIC [3]: 6 µM; MIC [4]: 6 µM (≈ 3.34 µg/mL); MIC [5]: 6 µM (≈ 3.34 µg/mL)
COc1ccc(NC(=O)NCc2cn(CCCCCn3cc(CNC(=O)Nc4ccc(OC)cc4)nn3)nn2)cc1 | – | – | – | – | – | – | MIC [1]: 6 µM; MIC [2]: 6 µM; MIC [3]: 6 µM; MIC [4]: 6 µM (≈ 3.38 µg/mL); MIC [5]: 6 µM (≈ 3.38 µg/mL)
COc1c(N2CCN(C(=O)Cn3cc(CN4C(=O)C(=O)c5cc(Cl)cc(Cl)c54)nn3)C(C)C2)c(F)cc2c(=O)c(C(=O)O)cn(C3CC3)c12 (stereo not drawn) | – | – | – | 0.03 | 0.03 | 0.03 | –
COc1c(N2CCN(C(=O)Cn3cc(CN4C(=O)C(=O)c5cccc(F)c54)nn3)C(C)C2)c(F)cc2c(=O)c(C(=O)O)cn(C3CC3)c12 (stereo not drawn) | – | – | – | 0.03 | 0.03 | 0.03 | –
CO/N=C1/C(=O)N(Cc2cn(CC(=O)N3CCN(c4c(F)cc5c(=O)c(C(=O)O)cn(C6CC6)c5c4OC)CC3C)nn2)c2ccccc21 (stereo not drawn) | – | – | – | 0.03 | 0.03 | 0.03 | –
COc1ccc(NC(=O)NCc2cn(Cc3cccc(Cn4cc(CNC(=O)Nc5ccc(OC)cc5)nn4)c3)nn2)cc1 | – | – | – | – | – | – | MIC [1]: 6 µM; MIC [2]: 6 µM; MIC [3]: 6 µM; MIC [4]: 6 µM (≈ 3.58 µg/mL); MIC [5]: 6 µM (≈ 3.58 µg/mL)
COc1c(N2CCNC(C)C2)c(F)cc2c(=O)c(C(=O)O)cn(C3CC3)c12 (stereo not drawn) [GATIFLOXACIN] | – | – | – | 0.12 | 0.12 | 0.12 | –
COc1c(N2CCN(C(=O)Cn3cc(CN4C(=O)/C(=N/O)c5cc(C)ccc54)nn3)C(C)C2)c(F)cc2c(=O)c(C(=O)O)cn(C3CC3)c12 (stereo not drawn) | – | – | – | 0.03 | 0.03 | 0.03 | –
O=C(NCc1cn(CCCCCn2cc(CNC(=O)Nc3ccc(Cl)cc3)nn2)nn1)Nc1ccc(Cl)cc1 | – | – | – | – | – | – | MIC [1]: 6 µM; MIC [2]: 6 µM; MIC [3]: 6 µM; MIC [4]: 6 µM (≈ 3.43 µg/mL); MIC [5]: 6 µM (≈ 3.43 µg/mL)
COc1c(N2CCN(C(=O)Cn3cc(CN4C(=O)/C(=N/O)c5ccccc54)nn3)C(C)C2)c(F)cc2c(=O)c(C(=O)O)cn(C3CC3)c12 (stereo not drawn) | – | – | – | 0.03 | 0.03 | 0.03 | –
O=C(NCc1cn(CCCn2cc(CNC(=O)Nc3ccc(Cl)cc3)nn2)nn1)Nc1ccc(Cl)cc1 | – | – | – | – | – | – | MIC [1]: 6 µM; MIC [2]: 6 µM; MIC [3]: 6 µM; MIC [4]: 6 µM (≈ 3.26 µg/mL); MIC [5]: 6 µM (≈ 3.26 µg/mL)
COc1ccc(NC(=O)NCc2cn(CCCCCCn3cc(CNC(=O)Nc4ccc(OC)cc4)nn3)nn2)cc1 | – | – | – | – | – | – | MIC [1]: 6 µM; MIC [2]: 6 µM; MIC [3]: 6 µM; MIC [4]: 6 µM (≈ 3.46 µg/mL); MIC [5]: 6 µM (≈ 3.46 µg/mL)
O=C(NCc1cn(Cc2cccc(Cn3cc(CNC(=O)Nc4ccc(F)cc4)nn3)c2)nn1)Nc1ccc(F)cc1 | – | – | – | – | – | – | MIC [1]: 6 µM; MIC [2]: 6 µM; MIC [3]: 6 µM; MIC [4]: 6 µM (≈ 3.44 µg/mL); MIC [5]: 6 µM (≈ 3.44 µg/mL)
CCO/N=C1/C(=O)N(Cc2cn(CC(=O)N3CCN(c4c(F)cc5c(=O)c(C(=O)O)cn(C6CC6)c5c4OC)CC3C)nn2)c2ccccc21 (stereo not drawn) | – | – | – | 0.03 | 0.03 | 0.03 | –
CCO/N=C1/C(=O)N(Cc2cn(CC(=O)N3CCN(c4c(F)cc5c(=O)c(C(=O)O)cn(C6CC6)c5c4OC)CC3C)nn2)c2ccc(F)cc21 (stereo not drawn) | – | – | – | 0.03 | 0.03 | 0.03 | –
COc1c(N2CCN(C(=O)Cn3cc(CN4C(=O)C(=O)c5cc(F)ccc54)nn3)C(C)C2)c(F)cc2c(=O)c(C(=O)O)cn(C3CC3)c12 (stereo not drawn) | – | – | – | 0.03 | 0.03 | 0.03 | –
CO/N=C1/C(=O)N(Cc2cn(CC(=O)N3CCN(c4c(F)cc5c(=O)c(C(=O)O)cn(C6CC6)c5c4OC)CC3C)nn2)c2c(F)cccc21 (stereo not drawn) | – | – | – | 0.03 | 0.03 | 0.03 | –
CCO/N=C1/C(=O)N(Cc2cn(CC(=O)N3CCN(c4c(F)cc5c(=O)c(C(=O)O)cn(C6CC6)c5c4OC)CC3C)nn2)c2ccc(C)cc21 (stereo not drawn) | – | – | – | 0.03 | 0.03 | 0.03 | –
COc1c(N2CCN(C(=O)Cn3cc(CN4C(=O)C(=O)c5ccccc54)nn3)C(C)C2)c(F)cc2c(=O)c(C(=O)O)cn(C3CC3)c12 (stereo not drawn) | – | – | – | 0.03 | 0.03 | 0.03 | –
CC1(C)S[C@@H]2[C@H](NC(=O)Cc3ccccc3)C(=O)N2[C@H]1C(=O)O [PENICILLIN G] | 1.56 (≈ 4.67 µM) | 1.56 (≈ 4.67 µM) | 3.12 (≈ 9.33 µM) | – | – | – | –
CN[C@@H]1[C@H](O[C@H]2[C@H](O[C@H]3[C@H](O)[C@@H](O)[C@H](N=C(N)N)[C@@H](O)[C@@H]3N=C(N)N)O[C@@H](C)[C@]2(O)C=O)O[C@@H](CO)[C@H](O)[C@H]1O [STREPTOMYCIN] | 6.25 (≈ 10.7 µM) | 6.25 (≈ 10.7 µM) | 3.12 (≈ 5.36 µM) | – | – | – | –
COc1c(N2CCN(C(=O)Cn3cc(CN4C(=O)C(=O)c5cc(C)ccc54)nn3)C(C)C2)c(F)cc2c(=O)c(C(=O)O)cn(C3CC3)c12 (stereo not drawn) | – | – | – | 0.03 | 0.03 | 0.03 | –
COc1c(N2CCN(C(=O)Cn3cc(CN4C(=O)/C(=N/O)c5cc(F)ccc54)nn3)C(C)C2)c(F)cc2c(=O)c(C(=O)O)cn(C3CC3)c12 (stereo not drawn) | – | – | – | 0.03 | 0.03 | 0.03 | –
CO/N=C1/C(=O)N(Cc2cn(CC(=O)N3CCN(c4c(F)cc5c(=O)c(C(=O)O)cn(C6CC6)c5c4OC)CC3C)nn2)c2ccc(F)cc21 (stereo not drawn) | – | – | – | 0.03 | 0.03 | 0.03 | –

Now from value to compound, other results behind:

MIC [9] [µg/mL] | MIC [10] [µg/mL] | MIC [11] [µg/mL] | Compound | MIC [6] [µg/mL] | MIC [7] [µg/mL] | MIC [8] [µg/mL] | other results
3.12 (≈ 8.38 µM) | 12.5 (≈ 33.6 µM) | 6.25 (≈ 16.8 µM) | Fc1ccccc1OCc1cn(-c2ccc(N3CCOCC3)c(F)c2)nn1 | – | – | – | –
25 (≈ 59.3 µM) | 25 (≈ 59.3 µM) | 3.12 (≈ 7.4 µM) | O=C(OCc1cn(-c2ccc(N3CCOCC3)c(F)c2)nn1)c1cc2ccccc2[nH]1 | – | – | – | –
6.25 (≈ 13.6 µM) | 12.5 (≈ 27.2 µM) | 25 (≈ 54.4 µM) | Fc1cc(-n2cc(CN3c4ccccc4Sc4ccccc43)nn2)ccc1N1CCOCC1 | – | – | – | –
25 (≈ 49.4 µM) | 50 (≈ 98.7 µM) | 50 (≈ 98.7 µM) | Fc1cc(-n2cc(CSc3nc4cc(Br)ccc4s3)nn2)ccc1N1CCOCC1 | – | – | – | –
12.5 (≈ 29.5 µM) | 6.25 (≈ 14.8 µM) | 12.5 (≈ 29.5 µM) | Fc1cc(-n2cc(COc3cc(Cl)cc(Cl)c3)nn2)ccc1N1CCOCC1 | – | – | – | –
25 (≈ 59.2 µM) | 50 (≈ 118 µM) | 25 (≈ 59.2 µM) | O=c1cc(OCc2cn(-c3ccc(N4CCOCC4)c(F)c3)nn2)c2ccccc2o1 | – | – | – | –
1.56 (≈ 4.19 µM) | 3.12 (≈ 8.38 µM) | 3.12 (≈ 8.38 µM) | Fc1ccc(OCc2cn(-c3ccc(N4CCOCC4)c(F)c3)nn2)cc1 | – | – | – | –
25 (≈ 64.3 µM) | 25 (≈ 64.3 µM) | 50 (≈ 129 µM) | Fc1cc(-n2cc(COc3cccc(Cl)c3)nn2)ccc1N1CCOCC1 | – | – | – | –
25 (≈ 61.7 µM) | 50 (≈ 123 µM) | 25 (≈ 61.7 µM) | Fc1cc(-n2cc(COc3cccc4cccnc34)nn2)ccc1N1CCOCC1 | – | – | – | –
12.5 (≈ 30.4 µM) | 25 (≈ 60.8 µM) | 6.25 (≈ 15.2 µM) | Fc1cc(-n2cc(CSc3nc4ccccc4o3)nn2)ccc1N1CCOCC1 | – | – | – | –
3.12 (≈ 6.82 µM) | 12.5 (≈ 27.3 µM) | 50 (≈ 109 µM) | O=C1CS(=O)(=O)c2ccccc2N1Cc1cn(-c2ccc(N3CCOCC3)c(F)c2)nn1 | – | – | – | –
6.25 (≈ 14.7 µM) | 1.56 (≈ 3.67 µM) | 25 (≈ 58.8 µM) | O=C1CSc2ccccc2N1Cc1cn(-c2ccc(N3CCOCC3)c(F)c2)nn1 | – | – | – | –
50 (≈ 115 µM) | 25 (≈ 57.3 µM) | 25 (≈ 57.3 µM) | Cc1cc(=O)oc2cc(OCc3cn(-c4ccc(N5CCOCC5)c(F)c4)nn3)ccc12 | – | – | – | –
25 (≈ 51.2 µM) | 25 (≈ 51.2 µM) | 25 (≈ 51.2 µM) | O=C1COc2cc(Br)ccc2N1Cc1cn(-c2ccc(N3CCOCC3)c(F)c2)nn1 | – | – | – | –
